This passage reports inhibition and residual activity results from ChEMBL document CHEMBL4507291 (2021).

A word on the inhibition: it is the drop in the measured response relative to a control, in per cent. The residual activity is what remains of the control signal, in per cent.

Experiment [1] concerns the target Sigma non-opioid intracellular receptor 1 (Homo sapiens, UniProt Q99720). The following applies: Compound concentration 10.0 uM.
The target in experiment [2] is T1, Serine/threonine-protein kinase 3 (Homo sapiens) (UniProt Q13188).
T1 sequence (whole entry): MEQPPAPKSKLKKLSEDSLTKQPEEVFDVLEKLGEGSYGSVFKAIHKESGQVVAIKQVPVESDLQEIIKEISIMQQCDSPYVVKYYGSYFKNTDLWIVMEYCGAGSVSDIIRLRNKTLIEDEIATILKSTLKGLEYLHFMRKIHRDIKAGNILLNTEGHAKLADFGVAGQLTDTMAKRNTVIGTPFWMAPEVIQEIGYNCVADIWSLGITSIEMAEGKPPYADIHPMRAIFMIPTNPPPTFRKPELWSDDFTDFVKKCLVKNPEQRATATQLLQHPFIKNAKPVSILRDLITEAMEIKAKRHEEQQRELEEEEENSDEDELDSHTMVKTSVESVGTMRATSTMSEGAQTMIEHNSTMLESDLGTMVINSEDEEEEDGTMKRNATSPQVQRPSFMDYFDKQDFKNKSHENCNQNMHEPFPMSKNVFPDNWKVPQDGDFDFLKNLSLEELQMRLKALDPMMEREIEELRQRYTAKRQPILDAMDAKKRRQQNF

The target of experiment [3] is T2, Megakaryocyte-associated tyrosine-protein kinase (Homo sapiens) (UniProt P42679).
T2 sequence (whole entry): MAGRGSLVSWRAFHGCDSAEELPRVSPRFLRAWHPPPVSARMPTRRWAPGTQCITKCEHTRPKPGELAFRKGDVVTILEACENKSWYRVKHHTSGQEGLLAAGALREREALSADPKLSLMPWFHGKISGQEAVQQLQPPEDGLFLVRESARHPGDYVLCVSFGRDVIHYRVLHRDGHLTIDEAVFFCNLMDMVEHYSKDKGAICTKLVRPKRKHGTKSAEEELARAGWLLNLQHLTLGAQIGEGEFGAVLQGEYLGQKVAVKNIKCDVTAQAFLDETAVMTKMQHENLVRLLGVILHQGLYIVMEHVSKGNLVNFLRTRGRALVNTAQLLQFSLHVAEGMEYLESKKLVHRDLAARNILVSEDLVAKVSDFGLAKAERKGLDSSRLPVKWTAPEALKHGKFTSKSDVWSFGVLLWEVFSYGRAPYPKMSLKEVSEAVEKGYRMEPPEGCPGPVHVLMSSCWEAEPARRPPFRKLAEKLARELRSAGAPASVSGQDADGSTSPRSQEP

Experiment [4] addresses STE20/SPS1-related proline-alanine-rich protein kinase (Homo sapiens) (UniProt Q9UEW8).
The target in experiment [5] is T3, Discoidin domain-containing receptor 2 (Homo sapiens) (UniProt Q16832).
T3 sequence (whole entry): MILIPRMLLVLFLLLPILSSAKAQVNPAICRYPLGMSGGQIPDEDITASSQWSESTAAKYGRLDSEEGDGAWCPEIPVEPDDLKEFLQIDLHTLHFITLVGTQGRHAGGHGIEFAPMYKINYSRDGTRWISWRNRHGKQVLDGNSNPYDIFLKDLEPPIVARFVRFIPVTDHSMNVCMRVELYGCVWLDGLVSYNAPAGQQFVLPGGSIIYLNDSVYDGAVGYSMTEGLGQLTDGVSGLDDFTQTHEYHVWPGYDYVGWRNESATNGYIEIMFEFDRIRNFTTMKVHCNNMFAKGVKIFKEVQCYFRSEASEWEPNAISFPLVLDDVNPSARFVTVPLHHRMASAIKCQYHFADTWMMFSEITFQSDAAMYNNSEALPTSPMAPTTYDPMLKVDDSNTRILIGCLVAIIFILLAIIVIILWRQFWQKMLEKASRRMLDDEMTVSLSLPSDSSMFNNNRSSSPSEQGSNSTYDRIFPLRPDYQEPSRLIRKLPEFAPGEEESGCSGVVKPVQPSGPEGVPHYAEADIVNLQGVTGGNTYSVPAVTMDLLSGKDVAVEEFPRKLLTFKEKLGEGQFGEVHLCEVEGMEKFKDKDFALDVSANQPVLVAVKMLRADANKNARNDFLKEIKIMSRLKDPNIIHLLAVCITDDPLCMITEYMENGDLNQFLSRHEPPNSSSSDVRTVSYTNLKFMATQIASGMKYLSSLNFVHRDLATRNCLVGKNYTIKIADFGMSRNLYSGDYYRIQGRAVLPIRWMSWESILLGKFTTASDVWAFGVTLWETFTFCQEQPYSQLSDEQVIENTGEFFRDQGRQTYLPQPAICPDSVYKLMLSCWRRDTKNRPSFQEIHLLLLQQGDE

Experiment [6] addresses T4, Serine/threonine-protein kinase Nek9 (Homo sapiens) (UniProt Q8TD19).
T4 sequence (whole entry): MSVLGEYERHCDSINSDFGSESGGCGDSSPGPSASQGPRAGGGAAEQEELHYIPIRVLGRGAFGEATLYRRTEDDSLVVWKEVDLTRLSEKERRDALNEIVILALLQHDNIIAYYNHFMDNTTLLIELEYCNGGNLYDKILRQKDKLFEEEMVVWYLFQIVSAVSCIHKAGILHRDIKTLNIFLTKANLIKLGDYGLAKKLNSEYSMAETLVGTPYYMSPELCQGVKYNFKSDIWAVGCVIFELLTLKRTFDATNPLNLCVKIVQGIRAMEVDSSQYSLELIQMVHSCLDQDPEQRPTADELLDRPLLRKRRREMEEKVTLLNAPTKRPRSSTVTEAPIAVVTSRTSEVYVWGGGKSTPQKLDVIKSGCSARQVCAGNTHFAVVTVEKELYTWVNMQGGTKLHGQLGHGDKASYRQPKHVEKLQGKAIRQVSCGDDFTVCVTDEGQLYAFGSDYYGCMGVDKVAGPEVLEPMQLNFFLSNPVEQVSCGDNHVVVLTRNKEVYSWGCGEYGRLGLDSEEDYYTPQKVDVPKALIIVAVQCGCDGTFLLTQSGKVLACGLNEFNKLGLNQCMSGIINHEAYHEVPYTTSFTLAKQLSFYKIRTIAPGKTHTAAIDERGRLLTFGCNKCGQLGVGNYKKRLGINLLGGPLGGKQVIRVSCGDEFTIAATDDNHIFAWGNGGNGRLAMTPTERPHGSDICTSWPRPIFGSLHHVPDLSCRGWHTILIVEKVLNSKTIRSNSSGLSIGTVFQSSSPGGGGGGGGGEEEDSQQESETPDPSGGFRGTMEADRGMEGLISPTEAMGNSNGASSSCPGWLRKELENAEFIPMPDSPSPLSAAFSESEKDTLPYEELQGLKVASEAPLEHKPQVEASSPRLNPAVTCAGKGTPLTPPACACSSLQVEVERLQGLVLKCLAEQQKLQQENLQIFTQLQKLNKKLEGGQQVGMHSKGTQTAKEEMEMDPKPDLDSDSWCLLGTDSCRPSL

Experiment [7] concerns eIF-2-alpha kinase GCN2 (Homo sapiens), Q9P2K8 [S808G].
[8] abbreviates: Compound concentration 100.0 nM.
Where [9] appears, read: Compound concentration 1000.0 nM.

Sequence of eIF-2-alpha kinase GCN2 (Homo sapiens), Q9P2K8 [S808G] (Q9P2K8 whole entry S808G): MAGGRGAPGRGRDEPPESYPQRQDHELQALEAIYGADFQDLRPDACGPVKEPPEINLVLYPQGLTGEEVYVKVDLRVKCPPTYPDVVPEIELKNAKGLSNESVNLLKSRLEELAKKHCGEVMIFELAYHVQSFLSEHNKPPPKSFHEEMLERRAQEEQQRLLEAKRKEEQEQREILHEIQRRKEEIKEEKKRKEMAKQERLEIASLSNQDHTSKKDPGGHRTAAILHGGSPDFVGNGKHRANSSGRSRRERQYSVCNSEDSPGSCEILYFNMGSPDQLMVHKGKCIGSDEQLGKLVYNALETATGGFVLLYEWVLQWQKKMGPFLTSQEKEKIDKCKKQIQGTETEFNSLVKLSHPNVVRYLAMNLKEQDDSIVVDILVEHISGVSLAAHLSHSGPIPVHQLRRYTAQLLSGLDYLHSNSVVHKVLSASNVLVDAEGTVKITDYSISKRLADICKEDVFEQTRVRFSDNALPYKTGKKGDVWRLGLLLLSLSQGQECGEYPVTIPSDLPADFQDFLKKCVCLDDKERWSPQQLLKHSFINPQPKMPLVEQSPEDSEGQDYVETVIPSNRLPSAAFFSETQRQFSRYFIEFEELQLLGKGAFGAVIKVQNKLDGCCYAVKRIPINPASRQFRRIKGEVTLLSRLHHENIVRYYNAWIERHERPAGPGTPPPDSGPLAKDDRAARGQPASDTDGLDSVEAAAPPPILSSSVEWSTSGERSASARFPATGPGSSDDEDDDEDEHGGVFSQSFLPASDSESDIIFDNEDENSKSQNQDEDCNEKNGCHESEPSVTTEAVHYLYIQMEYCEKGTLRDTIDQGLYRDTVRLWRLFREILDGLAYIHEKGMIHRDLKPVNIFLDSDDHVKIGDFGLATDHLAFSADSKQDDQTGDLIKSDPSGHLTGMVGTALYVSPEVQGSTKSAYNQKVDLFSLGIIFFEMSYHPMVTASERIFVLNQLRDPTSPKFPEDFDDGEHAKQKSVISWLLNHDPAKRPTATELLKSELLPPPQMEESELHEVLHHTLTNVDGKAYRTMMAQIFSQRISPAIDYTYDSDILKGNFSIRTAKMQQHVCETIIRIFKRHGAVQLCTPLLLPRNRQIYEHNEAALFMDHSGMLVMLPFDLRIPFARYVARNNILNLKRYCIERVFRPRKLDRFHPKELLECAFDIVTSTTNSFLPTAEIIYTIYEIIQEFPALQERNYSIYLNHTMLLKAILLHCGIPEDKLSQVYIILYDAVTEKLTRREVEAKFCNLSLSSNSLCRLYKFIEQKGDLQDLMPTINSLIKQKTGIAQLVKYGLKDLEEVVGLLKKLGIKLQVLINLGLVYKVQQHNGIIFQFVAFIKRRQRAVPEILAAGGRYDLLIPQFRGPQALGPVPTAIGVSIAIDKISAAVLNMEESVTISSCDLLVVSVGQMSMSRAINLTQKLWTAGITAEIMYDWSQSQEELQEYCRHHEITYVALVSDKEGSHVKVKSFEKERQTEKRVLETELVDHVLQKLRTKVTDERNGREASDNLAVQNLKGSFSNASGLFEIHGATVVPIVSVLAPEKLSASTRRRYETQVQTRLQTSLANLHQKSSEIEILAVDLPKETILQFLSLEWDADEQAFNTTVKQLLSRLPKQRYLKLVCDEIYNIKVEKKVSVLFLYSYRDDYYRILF
Sequence of Sigma non-opioid intracellular receptor 1 (Q99720 whole entry): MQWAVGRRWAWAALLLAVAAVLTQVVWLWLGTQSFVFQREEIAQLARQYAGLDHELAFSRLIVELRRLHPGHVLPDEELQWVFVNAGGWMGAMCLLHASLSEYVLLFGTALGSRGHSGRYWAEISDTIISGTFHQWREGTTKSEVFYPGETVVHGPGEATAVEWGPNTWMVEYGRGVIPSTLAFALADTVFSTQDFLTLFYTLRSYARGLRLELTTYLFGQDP

For the compound `C[C@@H]1CN(c2cc(-c3n[nH]c4ccc(OC5(C)CC5)cc34)ncn2)C[C@H](C)O1` [MLi-2], in experiment [1], the inhibition was 35.9%. Also, the residual activity was 78% in experiment [2] (setting [8]); 94% in experiment [3] (setting [8]); 85% in experiment [4] (setting [8]); 82% in experiment [5] (setting [8]); 100% in experiment [6] (setting [8]); 81% in experiment [7] (setting [8]).

Regarding `C[C@@H]1CN(c2cc(-c3nn(C)c4ccc(OC5(C)CC5)cc34)ncn2)C[C@H](C)O1` [MLi-2-NC], the inhibition in experiment [1] is 58.2%. Further, the residual activity is 100% in experiment [2] (setting [9]); 80% in experiment [3] (setting [9]); 70% in experiment [4] (setting [9]); 79% in experiment [5] (setting [9]); 71% in experiment [6] (setting [9]); 100% in experiment [7] (setting [9]).
